Experimental data taken from publication PMC10199020 (Nature Communications, 2023).
Bridge positions count the residues as written; N and C are the ends. Square brackets hold non-standard residues; d marks the D form. Peptide text beside a SMILES is read from it. * marks the point of attachment. 5TAMRA = CN(C)c1ccc2c(c1)Oc1cc(N(C)C)ccc1C21OC(=O)c2cc(C(=O)*)ccc21; 2Nal = N[C@@H](Cc1ccc2ccccc2c1)C(=O)O; Pen = CC(C)(S)[C@H](N)C(=O)O; Aib = CC(C)(N)C(=O)O

Experiments:
NL-IL12Rβ1 with IL23R = target: T1, NL-IL12Rβ1 with IL23R (Homo sapiens, UniProt Q5VWK5); assay: P630-TMR NanoBRET binding assay, NL-IL12Rβ1 with IL23R; settings: for BRET ratio, Specific (Mean) / BRET ratio, Non-specific (Mean): Fig. 2e; for BRET ratio, Non-specific (Mean): with 10 μM P630; for % maximum BRET ratio (Mean): Figure 2 sheet Panel g; for % maximum BRET ratio (Mean) / BRET ratio with non-specific binding subtracted (Mean): IL23R + NL-IL12RB1; for BRET ratio with non-specific binding subtracted (Mean): Figure 2 sheet Panels f, h
T1 construct: untagged full-length IL23R could be measured in the membranes of living cells; expressed in transfected cells; host or cells: HEK293T, transient transfection
T1 sequence (Q5VWK5 24-629, other chains not shown): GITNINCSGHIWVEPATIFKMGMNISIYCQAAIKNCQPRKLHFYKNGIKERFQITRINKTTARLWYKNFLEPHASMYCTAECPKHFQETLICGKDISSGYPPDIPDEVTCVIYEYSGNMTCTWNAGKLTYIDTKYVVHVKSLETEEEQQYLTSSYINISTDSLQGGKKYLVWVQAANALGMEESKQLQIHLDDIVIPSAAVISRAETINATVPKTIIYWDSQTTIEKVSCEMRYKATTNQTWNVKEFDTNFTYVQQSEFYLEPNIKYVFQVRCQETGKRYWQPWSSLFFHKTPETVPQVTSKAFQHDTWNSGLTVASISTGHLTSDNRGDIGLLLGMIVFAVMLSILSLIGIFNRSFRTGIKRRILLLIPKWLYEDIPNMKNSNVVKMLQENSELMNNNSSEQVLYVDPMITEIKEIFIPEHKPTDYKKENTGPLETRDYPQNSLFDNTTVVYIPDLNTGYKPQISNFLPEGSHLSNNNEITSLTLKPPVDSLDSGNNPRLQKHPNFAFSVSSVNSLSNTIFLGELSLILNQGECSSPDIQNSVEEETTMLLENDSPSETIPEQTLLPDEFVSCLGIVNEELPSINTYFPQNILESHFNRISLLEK
Excerpt: A standard curve was used to predict the expression level of NanoLuc labelled receptor in each experiment (Supplementary Fig. 1).
(§1) Fig. 2 Creation and characterisation of a fluorescent cyclic peptide probe for IL23R. […] Data are normally mean ± SEM from five independent experiments. Details on absolute number of data points included for each concentration are provided in the associated Source Data file. In each individual saturation experiment triplicate determinations were normally made for total binding and duplicate measurements were made for non-specific binding.
(§2) Media was removed from white 96-well microplates containing transfected cells and replaced with fluoroprobe in the presence or absence of antagonist in 50 μL Hanks Balanced Salt Solution (HBSS) with 1 mg/mL BSA (Merck). After a 1-hour incubation at 37 °C without CO2, 5 μL of HBSS containing 77 μM furimizine was added to each well (final concentration 7 μM), the plate incubated for 5-minutes and the BRET signal measured using a PheraStar FS plate reader (BMG Labtech; data acquisition software version 5.41; MARS analysis software version 3.32) with a 450 ± 30 nm and >550 nm long pass filters.
Ligand binding data were fitted with the equation:2 BRETratio=Bmax[A]/([A]+KD)+(BA+C). Where ‘Bmax’ is the maximum specific binding BRET signal, ‘[A]’ is fluorescent probe concentration, ‘B’ is the non-specific binding component’s slope and ‘C’ is the Y intercept.
(§3) Specific binding data was generated by subtracting the BRET values gained in the presence of an excess of unlabelled probe from the BRET ratios gained in the absence of unlabelled probe. Specific binding data were fit using the equation:3 Y=Bmax[B]/(B+KD) where ‘Bmax’ is the maximum specific binding signal of the curve and ‘[B]’ is the concentration of fluorescent probe.

NL-IL12Rβ1 = target: T2, NL-IL12Rβ1 (Homo sapiens, UniProt P42701); assay: P630-TMR NanoBRET binding assay, NL-IL12Rβ1 alone; settings: Fig. 2h; NL-IL12RB1; P630-TMR 1.37174 nM
T2 construct: expressed in transfected cells; host or cells: HEK293T, transient transfection
Excerpt: as §1
Finally, we utilised a NanoBiT BRET system in which a complemented luciferase with fragments bound to both receptor subunits (Fig. 3) can be used as a BRET donor to measure interactions with binary receptor complexes.
as §2, §3

[1] = NL-IL12Rβ1 and IL23R, P630-TMR 0.457247 nM
[2] = NL-IL12Rβ1 and IL23R, P630-TMR 1.37174 nM
[3] = NL-IL12Rβ1 and IL23R, P630-TMR 4.11523 nM
[4] = NL-IL12Rβ1 and IL23R, P630-TMR 12.3457 nM
[5] = NL-IL12Rβ1 and IL23R, P630-TMR 37.037 nM
[6] = NL-IL12Rβ1 and IL23R, P630-TMR 111.111 nM
[7] = NL-IL12Rβ1 and IL23R, P630-TMR 1000 nM
[8] = NL-IL12Rβ1 and IL23R, P630-TMR 3000 nM

COc1ccc(C[C@H](NC(=O)[C@H]2NC(=O)[C@H](CCC(N)=O)NC(=O)[C@H](Cc3c[nH]c4ccccc34)NC(=O)[C@H]([C@@H](C)O)NC(=O)[C@H](CC(N)=O)NC(=O)[C@@H](NC(C)=O)C(C)(C)SSC2(C)C)C(=O)N[C@@H](Cc2ccc3ccccc3c2)C(=O)NC(C)(C)C(=O)N[C@@H](CCC(=O)O)C(=O)N[C@@H](CC(N)=O)C(=O)N[C@@H](CC(N)=O)C(=O)N[C@@H](CCCCNC(=O)c2ccc3c(c2)C(=O)OC32c3ccc(N(C)C)cc3Oc3cc(N(C)C)ccc32)C(N)=O)cc1 [P630-TMR] (Ac-[Pen]NTWQ[Pen]Y(Me)[2Nal][Aib]ENNK(5TAMRA)-NH2; disulfide 1-6)
BRET ratio, Specific (Mean) (NL-IL12Rβ1 with IL23R; [1]): 0.2494 | BRET ratio, Specific (Mean) (NL-IL12Rβ1 with IL23R; [2]): 0.2506 | BRET ratio, Specific (Mean) (NL-IL12Rβ1 with IL23R; [3]): 0.2544 | BRET ratio, Specific (Mean) (NL-IL12Rβ1 with IL23R; [4]): 0.2565 | BRET ratio, Specific (Mean) (NL-IL12Rβ1 with IL23R; [5]): 0.2604 | BRET ratio, Specific (Mean) (NL-IL12Rβ1 with IL23R; [6]): 0.269 | BRET ratio, Specific (Mean) (NL-IL12Rβ1 with IL23R; [7]): 0.2823 | BRET ratio, Specific (Mean) (NL-IL12Rβ1 with IL23R; [8]): 0.2959 | BRET ratio, Non-specific (Mean) (NL-IL12Rβ1 with IL23R; [1]): 0.245 | BRET ratio, Non-specific (Mean) (NL-IL12Rβ1 with IL23R; [2]): 0.2494 | BRET ratio, Non-specific (Mean) (NL-IL12Rβ1 with IL23R; [3]): 0.2477 | BRET ratio, Non-specific (Mean) (NL-IL12Rβ1 with IL23R; [4]): 0.2499 | BRET ratio, Non-specific (Mean) (NL-IL12Rβ1 with IL23R; [5]): 0.2505 | BRET ratio, Non-specific (Mean) (NL-IL12Rβ1 with IL23R; [6]): 0.2497 | BRET ratio, Non-specific (Mean) (NL-IL12Rβ1 with IL23R; [7]): 0.2599 | BRET ratio, Non-specific (Mean) (NL-IL12Rβ1 with IL23R; [8]): 0.2729 | BRET ratio, Non-specific (Mean) (NL-IL12Rβ1 with IL23R; NL-IL12Rβ1 and IL23R, P630-TMR […]): 0.2519 | % maximum BRET ratio (Mean) (NL-IL12Rβ1 with IL23R; P630-TMR 0.457247 nM): 20.2943% | % maximum BRET ratio (Mean) (NL-IL12Rβ1 with IL23R; P630-TMR 1.37174 nM): 3.037% | % maximum BRET ratio (Mean) (NL-IL12Rβ1 with IL23R; P630-TMR 4.11523 nM): 30.2039% | % maximum BRET ratio (Mean) (NL-IL12Rβ1 with IL23R; P630-TMR 12.3457 nM): 28.4128% | % maximum BRET ratio (Mean) (NL-IL12Rβ1 with IL23R; P630-TMR 37.037 nM): 44.6085% | % maximum BRET ratio (Mean) (NL-IL12Rβ1 with IL23R; P630-TMR 111.111 nM): 87.2944% | % maximum BRET ratio (Mean) (NL-IL12Rβ1 with IL23R; P630-TMR 1000 nM): 109.773% | % maximum BRET ratio (Mean) (NL-IL12Rβ1 with IL23R; P630-TMR 3000 nM): 100.001% | BRET ratio with non-specific binding subtracted (Mean) (NL-IL12Rβ1 with IL23R; P630-TMR 0.457247 nM): 0.00447 | BRET ratio with non-specific binding subtracted (Mean) (NL-IL12Rβ1 with IL23R; P630-TMR 1.37174 nM): 0.001281 | BRET ratio with non-specific binding subtracted (Mean) (NL-IL12Rβ1 with IL23R; P630-TMR 4.11523 nM): 0.006719 | BRET ratio with non-specific binding subtracted (Mean) (NL-IL12Rβ1 with IL23R; P630-TMR 12.3457 nM): 0.00665 | BRET ratio with non-specific binding subtracted (Mean) (NL-IL12Rβ1 with IL23R; P630-TMR 37.037 nM): 0.009959 | BRET ratio with non-specific binding subtracted (Mean) (NL-IL12Rβ1 with IL23R; P630-TMR 111.111 nM): 0.01927 | BRET ratio with non-specific binding subtracted (Mean) (NL-IL12Rβ1 with IL23R; P630-TMR 1000 nM): 0.02313 | BRET ratio with non-specific binding subtracted (Mean) (NL-IL12Rβ1 with IL23R; P630-TMR 3000 nM): 0.02294 | Kd (NL-IL12Rβ1 with IL23R; NL-IL12Rβ1 and IL23R, mean ± SEM): 55.2 ± 10.5 nM | Bmax, fold lower than NL-IL23R with IL12Rβ1 (NL-IL12Rβ1 with IL23R; NL-IL12Rβ1 with IL23R): 42.53 fold | Specific binding BRET ratio (Mean) (NL-IL12Rβ1): -0.001356
